Assay results published in patent publication US10479782B2, “Forms of lumacaftor and processes for the preparation thereof” (Mylan Laboratories LImited, priority 2015, dated 2019).

What was measured:
[1] = Storage stability, physical (PXRD analysis); type: physicochemical
Protocol: Amorphous lumacaftor as prepared by methods herein may be characterized as amorphous by powder X-ray diffraction (PXRD). Thus, samples of amorphous lumacaftor were analyzed by X-ray diffraction on a BRUKER D-8 Discover powder diffractometer equipped with a goniometer of θ/2θ configuration and Lynx Eye detector. The Cu-anode X-ray tube was operated at 40 kV and 30 mA. The experiments were conducted over the […] of 2.0°-50.0°, 0.030° step size, and 0.4 seconds step time.
(§1) Another aspect of the present invention provides a crystalline lumacaftor acetic acid solvate. The crystalline lumacaftor acetic acid solvate prepared by methods disclosed herein may be characterized by PXRD. Thus, PXRD analyses of the crystalline lumacaftor acetic acid solvate were carried out on a PANalytical, X'Pert PRO powder diffractometer equipped with goniometer of θ/θ configuration and X'Celerator detector. The Cu-anode X-ray tube was operated at 40 kV and 30 mA. The experiments were conducted over the 2θ range of 2.0°-50.0°, 0.030° step size, and 50 seconds step time.
as §1, with “The” for “Another aspect of the present invention provides a crystalline”, “ethyl acetate” for “acetic acid solvate. The crystalline lumacaftor acetic acid”, “the” for “the crystalline”, “ethyl acetate” for “acetic acid”, “is” for “was”, “0.0300” for “0.030°”
The physical and chemical stabilities of the crystalline lumacaftor acetic acid solvate and the crystalline lumacaftor ethyl acetate solvate were determined by storing samples of each at 40° C./75% relative humidity (RH) and at 25° C./60% RH for six months. The samples were tested for stability by PXRD analysis and for purity by HPLC analysis.
(§2) As an example, Table 1 below provides data collected on amorphous lumacaftor.
(§3) As another example, Table 2 below provides data collected on crystalline lumacaftor ethyl acetate solvate and the crystalline lumacaftor acetic acid solvate.

[2] = Storage stability, chemical (purity by HPLC analysis); type: physicochemical
Protocol: Thus, in addition to PXRD analyses, HPLC analyses were also performed. HPLC separations may be performed on an HPLC column and detector system, such as an Kromasil 100 C18 column (150×4.6 mm, 3.5 μm) or its equivalent using a UV detector set at 220 nm with a column oven temperature of about 30° C. A flow rate of 1.0 mL/min with an injection volume of 10 μL may be used, with a run time of approximately 35 minutes.
[…] The samples were tested for stability by PXRD analysis and for purity by HPLC analysis.
as §2, §3

[3] = storage at 25° C./60% RH, 1 months
[4] = storage at 25° C./60% RH, 2 months
[5] = storage at 25° C./60% RH, 3 months
[6] = storage at 25° C./60% RH, 15 days
[7] = storage at 25° C./60% RH, Initial
[8] = stored for 3 months at 5±3° C. and 25° C./60% relative humidity (RH)
[9] = storage at 25° C./60% RH, 6 months
[10] = storage at 40° C./75% RH, 1 months
[11] = storage at 40° C./75% RH, 2 months
[12] = storage at 40° C./75% RH, 3 months
[13] = storage at 40° C./75% RH, 6 months
[14] = storage at 40° C./75% RH, 15 days
[15] = storage at 40° C./75% RH, Initial
[16] = stored for 6 months at 25° C./60% and 40° C./75% relative humidity (RH)

PXRD [1, 3] | PXRD [1, 4] | PXRD [1, 5] | PXRD [1, 6] | PXRD [1, 7] | HPLC Purity (%) [2, 3] [%] | HPLC Purity (%) [2, 4] [%] | HPLC Purity (%) [2, 5] [%] | HPLC Purity (%) [2, 6] [%] | HPLC Purity (%) [2, 7] [%] | PXRD [1, 9] | PXRD [1, 10] | PXRD [1, 11] | PXRD [1, 12] | PXRD [1, 13] | PXRD [1, 14] | PXRD [1, 15] | HPLC Purity (%) [2, 9] [%] | HPLC Purity (%) [2, 10] [%] | Compound | change in PXRD pattern on storage [1, 16] | further results
Stable | Stable | Stable | Stable | Amorphous | 99.63 | 99.60 | 99.65 | 99.67 | 99.65 | – | – | – | – | – | – | – | – | – | Cc1ccc(NC(=O)C2(c3ccc4c(c3)OC(F)(F)O4)CC2)nc1-c1cccc(C(=O)O)c1 [Amorphous lumacaftor, 3-(6-(1-(2,2-difluorobenzo[d][1,3]dioxol-5-yl)cyclopropanecarboxamido)-3-methylpyridin-2-yl)benzoic acid] | – | PXRD ([1]; storage at 5 ± 3° C., 1 months): Stable; PXRD ([1]; storage at 5 ± 3° C., 2 months): Stable; PXRD ([1]; storage at 5 ± 3° C., 3 months): Stable; PXRD ([1]; storage at 5 ± 3° C., 15 days): Stable; PXRD ([1]; storage at 5 ± 3° C., Initial): Amorphous; change in PXRD pattern on storage [1, 8]: no change in PXRD pattern; HPLC Purity (%) ([2]; storage at 5 ± 3° C., 1 months): 99.61%; HPLC Purity (%) ([2]; storage at 5 ± 3° C., 2 months): 99.63%; HPLC Purity (%) ([2]; storage at 5 ± 3° C., 3 months): 99.64%; HPLC Purity (%) ([2]; storage at 5 ± 3° C., 15 days): 99.67%; HPLC Purity (%) ([2]; storage at 5 ± 3° C., Initial): 99.65%; chemical degradation on storage [2, 8]: no significant chemical degradation
Stable | Stable | Stable | Stable | Crystalline | 99.93 | 99.95 | 99.92 | 99.95 | 99.97 | Stable | Stable | Stable | Stable | Stable | Stable | Crystalline | 99.95 | 99.94 | Cc1ccc(NC(=O)C2(c3ccc4c(c3)OC(F)(F)O4)CC2)nc1-c1cccc(C(=O)O)c1 [Lumacaftor ethyl acetate solvate, 3-(6-(1-(2,2-difluorobenzo[d][1,3]dioxol-5-yl)cyclopropanecarboxamido)-3-methylpyridin-2-yl)benzoic acid] | neither the lumacaftor ethyl acetate solvate nor the lumacaftor acetic acid solvate display any significant chemical degradation or any change in PXRD pattern | HPLC Purity (%) [2, 11]: 99.95%; HPLC Purity (%) [2, 12]: 99.95%; HPLC Purity (%) [2, 13]: 99.95%; HPLC Purity (%) [2, 14]: 99.95%; HPLC Purity (%) [2, 15]: 99.97%; chemical degradation on storage [2, 16]: neither the lumacaftor ethyl acetate solvate nor the lumacaftor acetic acid solvate display any significant chemical degradation
Stable | Stable | Stable | Stable | Crystalline | 99.92 | 99.92 | 99.89 | 99.92 | 99.84 | Stable | Stable | Stable | Stable | Stable | Stable | Crystalline | 99.93 | 99.93 | Cc1ccc(NC(=O)C2(c3ccc4c(c3)OC(F)(F)O4)CC2)nc1-c1cccc(C(=O)O)c1 [Lumacaftor acetic acid solvate, 3-(6-(1-(2,2-difluorobenzo[d][1,3]dioxol-5-yl)cyclopropanecarboxamido)-3-methylpyridin-2-yl)benzoic acid] | neither the lumacaftor ethyl acetate solvate nor the lumacaftor acetic acid solvate display any significant chemical degradation or any change in PXRD pattern | HPLC Purity (%) [2, 11]: 99.93%; HPLC Purity (%) [2, 12]: 99.89%; HPLC Purity (%) [2, 13]: 99.92%; HPLC Purity (%) [2, 14]: 99.92%; HPLC Purity (%) [2, 15]: 99.84%; chemical degradation on storage [2, 16]: neither the lumacaftor ethyl acetate solvate nor the lumacaftor acetic acid solvate display any significant chemical degradation
